{"source": "patent EP3072528B1", "about": "“COMPOSITION COMPRISING VEMURAFENIB AND CATIONIC COPOLYMER BASED ON METHACRYLATES” (ratiopharm GmbH, priority 2015, dated 2016)", "origin": "cited, not measured here", "conditions": "reported; BCS IV compound", "data": [{"compound": "CCCS(=O)(=O)Nc1ccc(F)c(C(=O)c2c[nH]c3ncc(-c4ccc(Cl)cc4)cc23)c1F", "note": "[Vemurafenib base, N-(3-{[5-(4-chlorophenyl)-1H-pyrrolo[2,3-b]pyridin-3-yl]carbonyl}-2,4-difluorophenyl)propane-1-sulfonamide]", "values": [{"measurement": "solubility in aqueous and physiological solvents", "result": "practically insoluble"}]}]}
